# Results reported in patent US20020061569A1, “Identification of essential genes in prokaryotes” (priority 2000, published 2002).
# B1: S1M10000001A05: clone containing the nucleic acid which inhibits Staphylococcus aureus proliferation (nucleic acid, listed as Staphylococcus aureus)
# DNA: GATCATATAGAATGACATCCGCTTCACGTATTAAACGCTCAGCCTTTTTCGTCAAATAATTCGGATTACCTGGACCCGCACCTATCAAGTAAACCTTGCCATATTCCTCTACAGACATATATATACGTTCCCGTCTGTAACTTCTACCTCATAAACATCTACACAACCTTCATCAGGTTCTTGAACAATACCTGTATTTAAATCAATTTTTT
# How the values were obtained:
# [1] = system: E. coli transformed with IPTG-inducible antisense clones; assay: Cell-based assay using antisense to genes encoding ribosomal proteins (Example 9)
# Excerpt: First, pLex5BA (Krause et al., J. Mol. Biol. 274: 365 (1997), the disclosure of which is incorporated herein by reference in its entirety) vectors containing antisense constructs to either rplW or to elaD were introduced into separate E. coli cell populations. Vector introduction is a technique well known to those of ordinary skill in the art. The vectors of this example contain IPTG inducible promoters that drive the transcription of the antisense RNA in the presence of the inducer. However, those skilled in the art will appreciate that other inducible promoters may also be used. Suitable vectors are also well known in the art. Antisense clones to genes encoding different ribosomal proteins or to genes encoding proteins that are not involved in protein synthesis were utilized to test the effect of antisense transcription on cell sensitivity to the antibiotics known to bind to ribosomal proteins and inhibit protein synthesis. Antisense nucleic acids comprising a nucleotide sequence complementarty to the elaD, atpB&atpE, visC and yohH genes are referred to as AS-elaD, AS-atpB/E, AS-visC, AS-yohH respectively. These genes are not known to be involved in protein synthesis. […]
# The cell populations containing vectors producing AS-elaD or AS-rplW were exposed to a range of IPTG concentrations in liquid medium to obtain the growth inhibitory dose curve for each clone (FIG. 1). First, seed cultures were grown to a particular turbidity measured by the optical density (OD) of the growth solution. […] The cells were grown for up to 15 hours and the extent of growth was determined by measuring the optical density of the cultures at 600 nm. […]
# An example of a tetracycline dose response curve is shown in FIGS. 2A and 2B for the rplW and elaD genes, respectively. Cells were grown to log phase and then diluted into medium alone or medium containing IPTG at concentrations which give 20% and 50% growth inhibition as determined by IPTG dose response curves. […] The 96 well plates were incubated at 37° C. and the OD600 was read by a plate reader every 5 minutes for up to 15 hours. […]
# [2] = system: Staphylococcus aureus RN4220; assay: Inhibition of proliferation after xylose induction of antisense expression (Example 1); assay type: cell-based; settings: 2% xylose
# Excerpt: In the case of Staphylococcus aureus, a novel inducible promoter system, XylT5, comprising a modified T5 promoter fused to the xylO operater from the xyla promoter of Staphylococcus aureus was used. The promoter is described in U.S. Provisional Patent Application Ser. No. 60/259,434, the disclosure of which is incorporated herein by reference in its entirety. Transcription from this hybrid promoter is inducible by xylose.
# In the case of Staphylococcus aureus, a shotgun library of Staphylococcus aureus genomic fragments was cloned into the vector pXyIT5-P15a, which harbors the Xy1T5 inducible promoter. […]
# The purified library was then transformed into electrocompetent Staphylococcus aureus RN4220. […] Gridded plates were incubated 16 hours at 37° C., and then manually scored for arrayed colonies that were growth-compromised in the presence of xylose.
# Arrayed colonies that were growth-sensitive on medium containing 2% xylose, yet were able to grow on similar medium lacking xylose, were subjected to further growth sensitivity analysis as follows: Colonies from the plate lacking xylose were manually picked and inoculated into individual wells of a 96 well culture dish containing LBG+CM15, and were incubated for 16 hours at 37° C. […] Clones that grew similarly at all dilutions on both media were scored as a negative and were no longer considered.
molecule,measurement,setting,value
CC[C@H]1OC(=O)[C@H](C)[C@@H](O[C@H]2C[C@@](C)(OC)[C@@H](O)[C@H](C)O2)[C@H](C)[C@@H](O[C@@H]2O[C@H](C)C[C@H](N(C)C)[C@H]2O)[C@](C)(O)C[C@@H](C)C(=O)[C@H](C)[C@@H](O)[C@]1(C)O [Erythromycin],sensitivity of cells transcribing antisense to genes not involved in protein synthesis,"[1]; AS-atpB/E, AS-visC, AS-elaD, AS-yohH",do not
same,sensitivity of cells transcribing antisense to protein synthesis genes,"[1]; AS-rplL, AS-rplW, clones to L7/L12, L10, L22, L18, rRNA, Elongation Factor G, with vs without IPTG",increased sensitivity
CCn1cc(C(=O)O)c(=O)c2ccc(C)nc21 [Nalidixic acid],sensitivity of the clone transcribing antisense to rplL and rplJ (AS-rplL/J),[1]; antibiotics which do not inhibit protein synthesis,does not show increased sensitivity
B1,growth sensitivity upon induction of antisense transcription,[2],inhibits Staphylococcus aureus proliferation
